We go through ten substances from publication PMC12775124, “CUL4A-DDB1-DCAF10 is an N-recognin for N-terminally acetylated Src kinases” (Nature Communications, 2026).

One assay relates to DCAF10. The assay is described as follows: Peptide pull-down with quantitative MS, HeLa lysate, DCAF10. Format: binding, human (HeLa). The settings on record: for DCAF10 binding of Nt-mutant peptides (in words): n = 3 replicates; for DCAF10 binding of swap peptide vs its WT (in words): direct comparisons Ac-Lyn vs Ac-Lyn^swap and Ac-THOC7 vs Ac-THOC7^swap.
For the next assay, the target named is T1, human NatA (Homo sapiens, UniProt P41227+Q9BXJ9).
T1 construct: Human NatA (hNatA) full-length (FL) was cloned; made in house; host or cells: Tnao38 insect cells (baculovirus, pFL vector)
T1 sequence (P41227 1-235): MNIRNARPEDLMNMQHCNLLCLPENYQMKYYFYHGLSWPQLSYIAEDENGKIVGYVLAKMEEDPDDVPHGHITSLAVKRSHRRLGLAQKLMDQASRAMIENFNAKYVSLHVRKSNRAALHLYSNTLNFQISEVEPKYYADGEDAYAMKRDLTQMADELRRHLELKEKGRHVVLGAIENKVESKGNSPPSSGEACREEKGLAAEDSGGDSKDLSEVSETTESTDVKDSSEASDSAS
T1 sequence (Q9BXJ9 1-866 partner): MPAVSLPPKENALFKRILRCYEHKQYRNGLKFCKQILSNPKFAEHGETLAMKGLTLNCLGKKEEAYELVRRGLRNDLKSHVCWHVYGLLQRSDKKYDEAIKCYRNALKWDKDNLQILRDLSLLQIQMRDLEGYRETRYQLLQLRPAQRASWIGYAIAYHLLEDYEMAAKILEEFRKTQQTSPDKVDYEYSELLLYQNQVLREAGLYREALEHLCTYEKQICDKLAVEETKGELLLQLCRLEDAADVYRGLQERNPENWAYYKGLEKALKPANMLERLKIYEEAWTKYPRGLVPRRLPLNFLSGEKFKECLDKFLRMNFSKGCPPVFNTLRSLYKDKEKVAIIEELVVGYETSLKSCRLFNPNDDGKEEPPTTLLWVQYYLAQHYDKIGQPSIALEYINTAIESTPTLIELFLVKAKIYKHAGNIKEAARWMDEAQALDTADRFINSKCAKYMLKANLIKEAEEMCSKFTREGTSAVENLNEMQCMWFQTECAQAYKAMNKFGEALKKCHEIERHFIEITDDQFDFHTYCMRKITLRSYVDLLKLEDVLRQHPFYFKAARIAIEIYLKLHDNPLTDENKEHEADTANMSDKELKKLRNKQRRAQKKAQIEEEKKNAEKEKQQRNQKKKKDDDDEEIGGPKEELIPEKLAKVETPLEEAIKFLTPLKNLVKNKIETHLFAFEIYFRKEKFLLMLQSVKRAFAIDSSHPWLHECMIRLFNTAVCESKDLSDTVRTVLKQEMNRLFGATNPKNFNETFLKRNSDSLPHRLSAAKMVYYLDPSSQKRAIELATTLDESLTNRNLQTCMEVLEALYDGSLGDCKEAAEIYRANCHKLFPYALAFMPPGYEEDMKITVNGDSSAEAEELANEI
The assay is described as follows: In vitro Nt-acetylation assay (NatA, CPM fluorescence). It is filed as biochemical. As to the method: Gly-starting proteins can be substrates of the Nt-acetyltransferase NatA[3],[21]. Having established direct DCAF10 binding to Ac-Gly N-termini, we next asked whether SFK N-termini are bona fide NatA substrates. We developed an in vitro Nt-acetylation assay comprising purified NatA, acetyl-CoA (Ac-CoA), and the peptide of interest (Fig. 3a, b)[33]. Acetyl-group transfer was assessed using CPM [7-(diethylamino)−3-(4′-maleimidophenyl)−4-methylcoumarin], which reacts specifically with free thiol groups to produce a highly fluorescent product (excitation: 390 nm; emission: 479 nm), allowing detection of CoA production after acetyl-group transfer to the peptide (Supplementary Fig. 4e). We optimized the conditions to determine Michaelis–Menten kinetics for NatA-mediated Nt-acetylation with a target peptide ([…]) previously used for NatA assays and co-crystallization (Supplementary Fig. 4f)[34]. […] Likely, this was due to a Km even higher than that of Src, and implying that the peptide concentrations in the assay might have been insufficient for the reaction to proceed with an appreciable rate. […] Negative controls (COX17 and Ac-Lyn) produced low signals. […] Given the direct association of NatA with SFK N-termini at the ribosomal exit tunnel, however, we surmise that Nt-acetylation of SFKs in cells may proceed despite these unfavorable kinetic parameters.
The assay was performed essentially as described previously. Briefly, peptide substrates (Supplementary Table 1) were incubated with purified human NatA and acetyl-CoA; acetylation was quantified by CPM fluorescence (CoA detection), and Michaelis–Menten parameters were derived from 8-point 1:1 dilution series within the linear range (n = 4 independent enzymatic assays). Full buffer compositions, reagent concentrations, plate format, instrument settings, controls, and fitting procedures are provided in the Supplementary Methods and Tables. […]
301 Cloning, expression, and purification of human NatA
302 Human NatA (hNatA) full-length (FL) was cloned in a pFL vector expressing both
303 genes, NAA15 with a 6× C-term histidine tag (NAA15-6xHIS) and NAA102. The
304 expression was carried out in insect cells (Tnao38) for 72 h infected 1:20 with
305 baculovirus. Washed cell pellets were lysed by sonication in a lysis buffer containing 200
306 mM NaCl, 50 mM HEPES pH 8.0, 20 mM Imidazole, and 2 mM TCEP. The protein
307 purification was performed as a three-step purification, starting with an affinity nickel
308 column, followed by an ion-exchange column with a gradient of 50–300 mM NaCl, and
309 finished with size exclusion chromatography (SEC) using an S200 10/300 column. The
310 main peaks were collected, and the protein was concentrated in the SEC buffer (150 mM
311 NaCl, 50 mM HEPES pH 8.0, 1 mM EDTA). The purified hNatA was flash-frozen in
312 liquid nitrogen and stored at -80°C.
314 In vitro Nt-acetylation assay
315 The method has been described in detail previously2. Briefly, different peptides
316 (Supplementary Table 1) and concentrations (an eight-step, 1:1 dilution series for
317 Michaelis-Menten curves) as indicated were incubated with 20 nM hNatA and 80 µM Ac-
318 CoA in reaction buffer (50 mM HEPES pH 8.0, 0.5 mM EDTA, 0.005% CHAPS) for 60
319 (Src) or 120 min (Lyn), at RT in a 384-well microplate (Corning 4514) (n = 4).
320 Afterwards, the enzymatic reaction was stopped by adding 1:1 DMSO with 10 µM (final
321 concentration 5 µM) of the thiol reactive CPM (7-Diethylamino-3-
322 (4'Maleimidylphenyl)4-Methylcoumarin). After 1 h at RT, the readout was performed
323 with a Tecan Spark® Multimode Microplate Reader (excitation 390 nm, emission 479
324 nm). Background values at 0 µM peptide were subtracted, and control reactions omitting
325 NatA or Ac-CoA were performed. Dilution series of CoA incubated with 5 µM CPM were
326 used to generate a linear equation (y = 10.99*x + 81.06) to calculate acetylation velocities
327 for NatA-mediated peptide acetylation. […]

[1] abbreviates: 20 nM NatA, 80 µM Ac-CoA, pH 8.0, RT, 60 min, CPM fluorescence 390/479 nm, mean ± s.d., n = 4, read-out: Km.

Like-named read-outs stand apart in the source and are kept apart here.

Procedure for DCAF10: Beads presenting 10-residue synthetic Nt-peptides of proteins of interest in their free (Nt-free) or modified (e.g., Nt-acetylated) versions were incubated with lysates from HeLa cells, followed by MS-based quantification of retained binders (Fig. 1a).
Biotinylated 10-mer Nt-peptides (Nt-free, Nt-acetylated, and, where indicated, Nt-myristoylated; sequences in Supplementary Table 1) were synthesized with a C-terminal Lys3 spacer and biotin, immobilized on magnetic streptavidin beads, and incubated with HeLa or mouse liver lysates. After standardized washes, bound proteins were on-bead reduced/alkylated, digested with LysC/trypsin, desalted, and analysed by LC-MS in DIA mode (Orbitrap Exploris 480) as described previously[24]. Variants included endogenous Nt-sequences, swap and mutant (Ala-Ala-Ala or Nt-amino acids) peptides, and pairwise comparisons of conditions of interest.
All MS experiments were performed as independent biological triplicates. Relative protein quantification was carried out using the label-free algorithm integrated in DIA-NN[53], and statistical testing was performed in Perseus using a two-sided Student’s t test with permutation-based multiple-testing-adjusted p-values[53],[54], as specified in the figure legends. […] Volcano blots were visualized with RStudio (version 2023.06.0). […] Cell experiments were performed as biological replicates, and binding assays as independent assays. […] Data are presented as mean ± s.d. Fold changes are reported as the ratio of the normalized value for the condition of interest to the normalized control value, with mean ± s.d. computed across biological replicates.

Take “ACIKSKGKDSKK [Ac-Lyn^G2A, Ac-Ala mutant Nt-peptide of Lyn]”: in the assay on DCAF10 (Ac-Ala (Ac-Lyn^G2A) vs Ac-Gly (Ac-Lyn^WT), HeLa lysate), the “DCAF10 interaction, fold lower relative to Ac-Gly peptide” value came to 15 fold. Also, the “DCAF10 binding of Nt-mutant peptides (in words)” value in the assay with DCAF10 is listed as “only identified in 2 of 3 replicates”.
For the substance “GAVKSKEVIRKK [Ac-THOC7^swap, THOC7 peptide carrying Lys5-Ser6-Lys7 of Lyn]”, in the assay on DCAF10 (Ac-Lyn^swap vs Ac-THOC7^swap relative to WT comparison), the “Reversal of preference after swapping positions 5–7” value is reported as ~ 133 fold. In the assay with DCAF10 (HeLa lysate), the “DCAF10 binding of swap peptide vs its WT (in words)” value is “increased binding”.
With “GCIAAAGKDSKK [Ac-Lyn^AAA, Ala5-Ala6-Ala7 mutant of Lyn peptide]”, the “log₂ difference, Ac-Lyn^WT vs Ac-Lyn^AAA, DCAF10” value in the assay with DCAF10 (HeLa lysate, n = 3) is −0.41.
Turning to “GCIKSKENKSKK [Ac-Yes, Nt-peptide of Yes, Nt-acetylated]”, the “DCAF10 binding (in words)” value in the assay with DCAF10 (HeLa lysate, Nt-Ac vs Nt-free peptides) was “bound to DCAF10”.
Consider “GCITDDGKDSKK [Ac-Lyn^swap, Lyn peptide carrying Thr5-Asp6-Asp7 of THOC7]”, for which the “log₂ difference Ac-Lyn^swap vs Ac-THOC7^swap, DCAF10” value with DCAF10 (HeLa lysate, n = 3) was −1.23. Also, the “DCAF10 binding of swap peptide vs its WT (in words)” value in the assay on DCAF10 (HeLa lysate) is “significantly reduced”.
Take “GSNKSKPKDAKK [Myr-Src, Nt-peptide of Src, N-myristoylated]”: the “DCAF10 binding, Nt-Ac vs Nt-Myr (in words)” value with DCAF10 (HeLa lysate) is reported as “no detectable DCAF10 binding”.
Consider “GSNKSKPKDAKK [Nt-free Src, Nt-peptide of Src, Nt-free]”, for which the Km on human NatA (setting [1]) is 144 ± 24 µM; on human NatA (conclusion: poor NatA substrates, read-out: Km, summary statement), above 100 µM; at human NatA (rounded values in Peer Review File, read-out: Km, as given in rebuttal), 143 µM.
On to “NatA target peptide: target peptide previously used for NatA assays and co-crystallization (SASEAGVRWG) [reference compound]”, for which the Km with human NatA (setting [1]) stood at 8.4 ± 1.7 µM.
Consider “PCIKSKGKDSKK [Lyn^G2P, Nt-free Pro mutant Nt-peptide of Lyn]”, for which the “DCAF10 binding of Nt-mutant peptides (in words)” value in the assay on DCAF10 is listed as “failed to bind DCAF10 in all replicates”.
With “PGLVDSNPAPKK [COX17, Pro-starting peptide from COX17, negative control, reference compound]”, the “Nt-acetylation by NatA (in words)” value at human NatA (original assay, peptide up to 160 μM) is “no detectable acetylation”; on human NatA (starting peptide concentration 1 mM), “low signals”.

One may read the Km as the substrate concentration at which the rate is half of its maximum.
